# Results published in patent US11286271B2, “Iridium (III) complexes containing N-heterocyclic carbene ligand, synthesis, and their use thereof in cancer treatment” (The University of Hong Kong, priority 2018, dated 2022).
# Tests used:
# [1] = system: NCI-H460 lung cancer cells; test: Cytotoxicity and photocytotoxicity, MTT assay, NCI-H460 in dark or under visible light; format: cell-based, human; settings: for PI = IC50(dark)/IC50(light): NCI-H460, phototoxicity index
# Procedure: FIG. 12A-12G. Plots of cell viability of NCI-H460 lung cancer cells upon 72 h treatment with the iridium(III) porphyrin complexes and cis-platin in dark or under light irradiation (2.8 mW cm^−2 for 1 h).
# NCI-H460 lung cancer cells incubated with the complexes were exposed to a low dose of visible light irradiation (2.8 mW cm^−2) for 1 h. […] The cytotoxicity of [Ir^III(oep)Cl(CO)] was also evaluated for comparison.
# [2] = in CHCl3, reference standard; cited from earlier work
# [3] = system: HepG2; test: In vitro cytotoxicity, MTT assay, HepG2; format: cell-based, human; settings: 72 h incubation
# [4] = system: panel of human cancer cell lines; test: Cytotoxicity towards a panel of human cancer cell lines; settings: summary of Table 2
# [5] = Lipophilicity, n-octanol / saline partition; format: physicochemical; settings: n-octanol / saline solution (0.9% w/v), by amount of iridium
# [6] = system: MCF-7; test: In vitro cytotoxicity, MTT assay, MCF-7; format: cell-based, human; settings: 72 h incubation
# [7] = system: NCI-H460 lung cancer xenografts; settings: 3.0 mg/kg intratumoral
# Description: FIGS. 9A-9D. […] (A) Tumor volume. (B) Body weight of mice. (C) Tumor weight after the experiment. […] (D) Photo of tumors of each group after treatment for 15 days. Data are expressed as the mean±standard error; **p<0.01.
# (§1) The other two groups of mice received the same treatment without irradiation as a control.
# [8] = system: NCI-H460 cells; test: Apoptosis by annexin-V-FITC/propidium iodide flow cytometry; format: cell-based, human; settings: 0.1 μM
# Description: (§2) FIGS. 8A-8C. […] (A) Apoptosis/necrosis in NCI-H460 cells as examined by flow cytometry of annexin-V-FITC/propidium iodide-stained cells. (B) Cell cycle progression in NCI-H460 cells as examined by flow cytometry. (C) Inhibition of angiogenesis of MS-1 endothelial cells.
# as §1
# [9] = Singlet oxygen generation quantum yield from 1O2 emission; format: physicochemical; settings: oxygen-saturated CHCl3, referenced to H2tpp
# [10] = system: peptide ([…]) from thioredoxin (Trx); test: Photoinduced oxidation of Trx model peptide by ESI-MS/MS; format: biochemical; settings: peptide 20 μM, complex 10 μM, light irradiation 1 h
# Description: A peptide ([sequence]) from thioredoxin (Trx) was employed as a model to investigate the possible oxidative modification sites by electrospray ionization tandem mass spectrometry (ESI-MS/MS).
# [11] = system: MS-1 endothelial cells; test: Inhibition of endothelial cell tube formation (angiogenesis); format: cell-based; settings: 0.1 μM
# Description: as §2, §1
# [12] = system: NCI-H460 cells; test: Subcellular localization by confocal microscopy imaging; settings: 1 μM, 2 h, NCI-H460, ER-Tracker green
# [13] = system: NCI-H460 human non-small cell lung cancer xenografts; test: In vivo antitumor activity, intravenous injection, NCI-H460 xenograft; settings: 3 mg/kg intravenous thrice weekly, 16-day treatment
# Procedure: (A) Tumor volume and (B) body weight of mice. Data are expressed as the mean±standard error; *p<0.05.
# Nude mice bearing NCI-H460 human non-small cell lung cancer xenografts were administered 102 (3 mg/kg) via intravenous injection thrice weekly.
# [14] = system: NCI-H460 cells; test: Cell cycle progression by flow cytometry; format: cell-based, human; settings: 0.1 μM
# Description: as §2, §1
# [15] = system: NCI-H460 lung cancer cells; test: Cellular ROS generation by DCF fluorescence (H2DCF-DA probe); format: cell-based, human; settings: 1 μM, 2 h, visible light irradiation
# Procedure: (A) Generation of ROS examined by DCF fluorescence measurement in NCI-H460 cells treated with or without iridium(III) porphyrin complexes (1 μM) for 2 h with or without irradiation by visible light.
# To examine the relationship between photocytotoxicity and the photosensitizing properties of the complexes, we measured the cellular reactive oxygen species (ROS) generation using the ROS probe H2DCF-DA after treatment of cancer cells with the iridium(III) porphyrin complexes.
molecule,measurement,setting,value
N.N.[Cl][Pt][Cl] [Cisplatin],PI = IC50(dark)/IC50(light),[1],0.72
same,PI = IC50(dark)/IC50(light),[1]; listed as cisplatin,< 1
"C1=Cc2nc1c(-c1ccccc1)c1ccc([nH]1)c(-c1ccccc1)c1nc(c(-c3ccccc3)c3ccc([nH]3)c2-c2ccccc2)C=C1 [Complex H2tpp, H2tpp]","Quantum yield of singlet oxygen generation (Φso), reference",[2],0.55
CCC1=C(CC)C2=NC1=Cc1c(CC)c(CC)c3[n]1[Ir+][n]1c(c(CC)c(CC)c1=CC1=NC(=C3)C(CC)=C1CC)=C2.F[B-](F)(F)F.[C-]#[N+]c1ccc(OC)cc1.[C-]#[N+]c1ccc(OC)cc1 [[Ir^III(ope)(CNPhOMe)2](BF4)],PI = IC50(dark)/IC50(light),[1],24.2
same,IC50,[3],> 100 µM
same,"Cytotoxicity / IC50 in words, panel of human cancer cell lines",[4],reduced cytotoxicity
same,Log P,[5],2.81
same,IC50,[6],> 100 µM
[Ir^III(oep)(IMe)2](OTf) [Complex 102],"Tumor weight, photoirradiation group vs dark control group",[7]; after 15 days,much lower
same,Changes in body weight,"[7]; with or without irradiation, 15 days",negligible changes in body weight
same,"Proportion of cells undergoing apoptotic cell death, without irradiation",[8]; dark,5.9%
same,"Proportion of cells undergoing apoptotic cell death, light irradiation",[8]; visible light irradiation,81.7%
same,Quantum yield of singlet oxygen generation (Φso),[9],0.88
same,Oxidative modification of Trx peptide,[10],undergo oxidative modifications
same,"MS-1 cell tube formation, dark",[11]; dark,moderate inhibition
same,"MS-1 cell tube formation, light irradiation",[11]; light irradiation,completely abrogated
same,Pearson's correlation coefficient (R) with ER-Tracker,[12],0.903
same,Toxicity incl. body weight loss and death,[13],without apparent toxicity
same,Tumor size reduction,[13],41%
same,G0/G1-population,[14]; dark (increase from 59.6%),66.3%
same,"sub-G1 population, visible light irradiation",[14]; visible light irradiation,96.9%
same,"sub-G1 population, before irradiation",[14]; without light,2.2%
same,Elevation in ROS levels,[15],10 fold
[Ir^III(oep)(I^iPr)2](PF6) [Complex 103],"IC50 upon light irradiation, in words","[1]; NCI-H460, visible light 2.8 mW cm^−2, 1 h",nanomolar
[Ir^III(oep)Cl(CO)],PI = IC50(dark)/IC50(light),[1],>2.5
same,IC50,"[1]; dark, MTT assay, 72 h",> 50 µM
same,Log P,[5],2.38
[Ir^III(ttp)(IMe)2](ORf) [Complex 101],Quantum yield of singlet oxygen generation (Φso),[9],0.64
